These results are taken from PMC9501280, “Anti-Inflammatory Activity of Soluble Epoxide Hydrolase Inhibitors Based on Selenoureas Bearing an Adamantane Moiety” (International Journal of Molecular Sciences, 2022).

Data set [1] has as its system LPS-stimulated C57bl/6j peritoneal macrophages. Put plainly: Suppression of NO synthesis in LPS-stimulated peritoneal macrophages (Griess). Type of data set: cell-based, mice. The source says: For screening designed compounds according to their probable ability to limit inflammation, we used a test on the inhibition of LPS-induced activation of primary murine macrophages. The most prominent anti-inflammatory activity, defined as the suppression of nitric oxide synthesis by LPS-stimulated macrophages, was evident for compounds 4a and 5b. At the same time, for 4a, the cytotoxic concentration was 4.7–18.4 times higher than the effective anti-inflammatory concentration. […] According to the data obtained, there is no direct correlation between the efficiency of the inhibition of sEH and NO synthesis, which requires further studies of the anti-inflammatory activity of the investigated compounds.
(§1) Peritoneal macrophages (PM) were isolated from the peritoneal exudate of 30 male C57bl/6j mice. To accumulate PM, 1 mL of 3% peptone solution was injected intraperitoneally. After 3 days, the mice were euthanized by cervical dislocation. Cells of peritoneal exudate were obtained by aseptic washing of the abdominal cavity with 5 mL of sterile Hanks’s solution (+4–6 °C) without calcium and magnesium ions. The total number and viability of cells were assessed in a Goryaev counting chamber (Russia) with a 0.4% trypan blue staining (Sigma-Aldrich, St. Louis, MO, USA). The cell concentration was adjusted to 1.0 × 10^6 cells/mL in DMEM (Gibco) supplemented with 2 mM L-glutamine (Gibco), 10% heat-inactivated fetal bovine serum (BioClot, Passau, Germany), 100 U/mL penicillin and […] streptomycin (Gibco) and plated 200 μL/well in 96-well transparent plates (SPL Life Sciences Co., Ltd., Pochon, Korea). After 2 h at 37 °C in a humidified atmosphere with 5% CO2, wells were washed to remove nonadherent cells. After 24 h of incubation, 20 μL of the supernatants were substituted with 20 μL of solutions of the test compounds, followed with E. coli O127:B8 LPS (100 ng/mL final concentration) after 30 min. Experiments were run in 3 independent replicates.
The accumulation of nitrite anion (a stable decomposition product of NO produced by iNOS) in the supernatants was determined using a standard Griess reagent. Briefly, 50 μL of supernatants collected 22 h after incubation of PM with the test and control compounds were mixed with 50 μL of 1% sulfonamide in 2.5% H3PO4 and 50 μL of 0.1% N-(1-naphthyl) ethylenediamine in 2.5% H3PO4. After incubation at 23 °C for 10 min. in an orbital shaker, the optical density was determined at a wavelength of 550 nm with a microplate reader Infinite M200 PRO (Tecan, Austria).
Background: Griess reagent forms a coloured azo dye with nitrite.

Data set [2] has as its system human neuroblastoma cells (SH-SY5Y). The data set is described as follows: MTT test on neuroblastoma cells. Type of data set: cell-based. The conditions noted are these: 72 h, read-out: EC50 ± SEM, SH-SY5Y. On the procedure: For compounds with evident anti-inflammatory activity (4a and 5b) and one outgroup compound (4g), MTT tests with the human fibroblast cells (MRC-5) and human neuroblastoma cells (SH-SY5Y) were carried out. The studied compounds were added in concentrations of 1, 3, 6, 12, 25, 50, and 100 μM.
The MTT test to determine the effect of cell viability was performed on the SH-SY5Y neuroblastoma cell line in a 96-well plate.
Cells grown to 80% confluence were trypsinized and plated at a density of 5000 cells per well (100 µL total well volume) and incubated overnight in a CO2 incubator. The next day, a 50 mM stock of studied compounds in DMSO was diluted in DMEM and added in the amount of 50 μL per well to obtain final concentrations of 1–100 μM. […] After that, the supernatant was discarded, 100 μL of DMSO was added and, after the dissolution of the formazan crystals, the absorbance at 570 nm was measured on a Synergy HT plate reader (Biotek, Winooski, VT, USA). […]
All experiments with SH-SY5Y, E. coli and B. subtilis cell cultures were performed in 3 independent repetitions. The error in the luminescence measurements was calculated using the standard deviation equation based on 3 repeats, its values on the graphs are shown with error bars. EC50 concentrations were determined using Combenefit software.
Background: Formazan colour is commonly taken as a measure of viable cells.

The test system of the next data set is E. coli PQ37. Put plainly: SOS chromotest. In kind it is cell-based. How it is done: For the final safety check of selenoureas, the SOS chromotest was carried out. […] The results are presented as the mean value of induction factor I (c) ± SEM based on the results of three independent experiments, each of which included three replicates (Table 5).
The SOS chromotest was carried out according to the standard procedure, with recommended additions. The E. coli PQ37 strain was provided by P. Quillardet (Paris, France). The test compounds were dissolved in dimethyl sulfoxide (DMSO) (also used as a negative control) and added to the bacterial medium in the required concentrations; the concentration of the injected solutions was 1% by volume.

Data set [3] is described as follows: LDH release cytotoxicity on peritoneal macrophages. The conditions noted are these: male, C57bl/6j, mouse; 24 h incubation; read-out: LDH CC50 ± SE. Type of data set: cell-based, mice. On the procedure:
as §1
The activity of lactate dehydrogenase (LDH) in a cell culture medium served as a marker of membrane permeability and cell death. Aliquots of supernatants were taken after 24 h of inoculation with test compounds, mixed with 250 μL of […] NADH solution in 54 mM phosphate-buffered saline (pH 7.5). Then, 25 μL of a 6.48 mM pyruvate solution was added to the mixture. The optical density was followed at a wavelength of 340 nm for 20 min. The MTT test was performed 24 h after the incubation of cells with the tested compounds. […] The plates were shaken at room temperature for 10 min, and the optical density was measured in a microplate reader Infinite M200 PRO (Tecan Group Ltd., Männedorf, Switzerland) at a wavelength of 565 nm.

In the case of `[Se]=C(Nc1ccccc1)NC12CC3CC(CC(C3)C1)C2` [4a, 1-(Adamantan-1-yl)-3-phenylselenourea], the “cytotoxic concentration versus effective anti-inflammatory concentration” value in data set [1] (CC50 (MTT, LDH) over NO synthesis IC50, peritoneal macrophages) is on record as 4.7–18.4 times. In addition, in data set [1] (Mus musculus, Peritoneal macrophage, 22 h, read-out: NO Synthesis, IC50 ± SE), the IC50 – broadly, the point on the concentration scale where inhibition reaches its midpoint – was 1.6 ± 0.2 µM. In addition, the EC50 (as a rule, the concentration giving half of the maximal effect) in data set [2] was determined as 16.5 ± 1.5 µM. In addition, the “genotoxic activity (in words)” value in the data set with E. coli PQ37 (SOS chromotest / lux-biosensors) was “does not exhibit genotoxic properties”. Also, the “I(c) ± SE, 10 µM” value in the data set on E. coli PQ37 (induction factor, compound 10 µM) is recorded as 1.03 ± 0.13. Besides, in the data set with E. coli PQ37 (induction factor, compound 25 µM), the “I(c) ± SE, 25 µM” value is 1.09 ± 0.14. In addition, the “I(c) ± SE, 50 µM” value with E. coli PQ37 (induction factor, compound 50 µM) amounted to 1 ± 0.15. In the data set with E. coli PQ37 (induction factor, compound 100 µM), the “I(c) ± SE, 100 µM” value amounted to 1.08 ± 0.09. For the same compound, the CC50 (as a rule, the concentration that lowers cell viability or growth by half) at 24 h in data set [3] amounted to 29.4 ± 8.5 µM.

Turning to `[Se]=C(Nc1ccccc1)NC1C2CC3CC(C2)CC1C3` (centres unmarked) [4g, 1-(Adamantan-2-yl)-3-phenylselenourea], in data set [1] (LPS-stimulated macrophages), the “NO synthesis inhibition (in words)” value is recorded as “able to inhibit sEH but not NO synthesis”. Also, the EC50 in data set [2] worked out at 8.6 ± 0.9 µM.
